# Source: patent US8247211B2, “Glycopeptide antibiotics” (American Cyanamid Company, priority 2001, dated 2012)
# Numbered stars: 1 amine (or outer) side, 2 acyl side, 3 side chain; on linkers, the order of the positions; unused ones are H or OH. Square brackets hold non-standard residues; d marks the D form. Peptide text beside a SMILES is read from it. ξ: configuration not given here. X1 = N=C1NCC(C(O)C(N[*:1])C(=O)[*:2])N1C1OC(CO)C(O)C(O)C1O; ξEnduracididine(βξ-OH,4'ξ) = N=C1NCC(C(O)C(N)C(=O)O)N1
# Tests used:
# Assay in all cases: In vitro antibacterial evaluation: minimum inhibitory concentration (MIC), broth dilution method
# Format in all cases: cell-based
# Escherichia coli [1] = test system: Escherichia coli
# Escherichia coli [2] = test system: Escherichia coli; remark: listed apart in the source
# Method in brief: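 MIC read as lowest drug level preventing visible growth. Organisms at 5×10^5 CFU/mL were exposed to a 64-0.06 μg/mL dilution series in Muller-Hinton II […] following NCCLS broth dilution standard M7-A2.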
# Staphylococcus sp. = conditions: 18 hours at 35° C.
# Method in brief: (§1)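 Test strains, among them recent clinical isolates carrying methicillin, penicillin and/or vancomycin resistance, were inoculated at 5×10^5 CFU/mL. A broth dilution series spanning 64-0.06 μg/mL in Muller-Hinton II […] (NCCLS M7-A2) defined the MIC as the lowest growth-inhibiting concentration.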
# Enterococcus sp. = test system: Enterococcus sp.
# Method in brief: as §1
smiles,measurement,setting,value
"CCC(C)C(=O)OC1C(CO)OC(OC2C(CO)OC(Oc3ccc(CC4NC(=O)C(C(C)c5ccccc5)NC(=O)CNC(=O)C(CO)NC(=O)C(C(O)C5CNC(=N)N5C5OC(CO)C(O)C(O)C5O)NC(=O)C(C(O)C5CNC(=N)N5)NC4=O)cc3)C(O)C2O)C(O)C1O (stereo not drawn) [Example 278c, Cyclo[glycyl-β-methylphenylalanyl-O-[4-O-[4-O-(2-methylbutanoyl)hexopyranosyl]hexopyranosyl]tyrosyl-3-(2-iminoimidazolidin-4-yl)seryl-3-(3-hexopyranosyl-2-iminoimidazolidin-4-yl)serylseryl]]",MIC Escherichia coli (ATCC 25922),Escherichia coli [1],>64 µg/mL
same,MIC Escherichia coli (GC 4559),Escherichia coli [2],>64 µg/mL
same,MIC Escherichia coli (GC 4560),Escherichia coli [2],2 µg/mL
same,MIC Coagulase Negative Staphylococcus (GC 4547),Staphylococcus sp.,4 µg/mL
same,MIC Coagulase Negative Staphylococcus (GC 4547),Staphylococcus sp.; broth dilution,4 µg/mL
same,MIC Coagulase Negative Staphylococcus (GC 4548),Staphylococcus sp.,2 µg/mL
same,MIC Coagulase Negative Staphylococcus (GC 4548),Staphylococcus sp.; broth dilution,2 µg/mL
same,MIC Coagulase Negative Staphylococcus (GC 4549),Staphylococcus sp.,2 µg/mL
same,MIC Coagulase Negative Staphylococcus (GC 4549),Staphylococcus sp.; broth dilution,2 µg/mL
same,MIC Coagulase Negative Staphylococcus (GC 4551),Staphylococcus sp.,8 µg/mL
same,MIC Coagulase Negative Staphylococcus (GC 4551),Staphylococcus sp.; broth dilution,8 µg/mL
same,MIC Coagulase Negative Staphylococcus (GC 6257),Staphylococcus sp.,2 µg/mL
same,MIC Coagulase Negative Staphylococcus (GC 6257),Staphylococcus sp.; broth dilution,2 µg/mL
same,MIC Staphylococcus aureus (ATCC 29213),Staphylococcus sp.,4 µg/mL
same,MIC Staphylococcus aureus (ATCC 29213),Staphylococcus sp.; broth dilution,4 µg/mL
same,MIC Staphylococcus aureus (GC 1131),Staphylococcus sp.,8 µg/mL
same,MIC Staphylococcus aureus (GC 1131),Staphylococcus sp.; broth dilution,8 µg/mL
same,MIC Staphylococcus aureus (GC 3051),Staphylococcus sp.,2 µg/mL
same,MIC Staphylococcus aureus (GC 3051),Staphylococcus sp.; broth dilution,2 µg/mL
same,MIC Staphylococcus aureus (GC 3053),Staphylococcus sp.,8 µg/mL
same,MIC Staphylococcus aureus (GC 3053),Staphylococcus sp.; broth dilution,8 µg/mL
same,MIC Staphylococcus aureus (GC 4541),Staphylococcus sp.,4 µg/mL
same,MIC Staphylococcus aureus (GC 4541),Staphylococcus sp.; broth dilution,4 µg/mL
same,MIC Staphylococcus aureus (GC 4542),Staphylococcus sp.,4 µg/mL
same,MIC Staphylococcus aureus (GC 4542),Staphylococcus sp.; broth dilution,4 µg/mL
same,MIC Staphylococcus aureus (GC 4544),Staphylococcus sp.,4 µg/mL
same,MIC Staphylococcus aureus (GC 4544),Staphylococcus sp.; broth dilution,4 µg/mL
same,MIC Staphylococcus aureus (GC 4545),Staphylococcus sp.,4 µg/mL
same,MIC Staphylococcus aureus (GC 4545),Staphylococcus sp.; broth dilution,4 µg/mL
same,MIC Staphylococcus aureus-SMITH (GC 4543),Staphylococcus sp.,4 µg/mL
same,MIC Staphylococcus aureus-SMITH (GC 4543),Staphylococcus sp.; broth dilution,4 µg/mL
same,MIC Staphylococcus haemolyticus (GC 4546),Staphylococcus sp.,2 µg/mL
same,MIC Staphylococcus haemolyticus (GC 4546),Staphylococcus sp.; broth dilution,2 µg/mL
same,MIC Enterococcus avium (GC 4558),Enterococcus sp.,32 µg/mL
same,MIC Enterococcus faecalis (ATCC 29212),Enterococcus sp.,32 µg/mL
same,MIC Enterococcus faecalis (GC 4553),Enterococcus sp.,32 µg/mL
same,MIC Enterococcus faecalis (GC 4554),Enterococcus sp.,32 µg/mL
same,MIC Enterococcus faecalis (GC 6189),Enterococcus sp.,32 µg/mL
same,MIC Enterococcus faecium (GC 2243),Enterococcus sp.,32 µg/mL
same,MIC Enterococcus faecium (GC 4556),Enterococcus sp.,32 µg/mL
same,MIC Enterococcus faecium (GC 4557),Enterococcus sp.,8 µg/mL
"N=C1NCC(C(O)C2NC(=O)C(Cc3ccc(O)cc3)NC(=O)C(Cc3ccccc3)NC(=O)CNC(=O)C(CO)NC(=O)C(C(O)C3CNC(=N)N3C3OC(CO)C(O)C(O)C3O)NC2=O)N1 (stereo not drawn) [Example 279a, Cyclo[glycylphenylalanyltyrosyl-3-(2-iminoimidazolidin-4-yl)seryl-3-(3-hexopyranosyl-2-iminoimidazolidin-4-yl)serylseryl]] (cyclo(GFY[ξEnduracididine(βξ-OH,4'ξ)][X1]S); configuration not given here)",MIC Escherichia coli (ATCC 25922),Escherichia coli [1],64 µg/mL
same,MIC Escherichia coli (GC 4559),Escherichia coli [2],64 µg/mL
same,MIC Escherichia coli (GC 4560),Escherichia coli [2],32 µg/mL
same,MIC Coagulase Negative Staphylococcus (GC 4547),Staphylococcus sp.,64 µg/mL
same,MIC Coagulase Negative Staphylococcus (GC 4547),Staphylococcus sp.; broth dilution,64 µg/mL
same,MIC Coagulase Negative Staphylococcus (GC 4548),Staphylococcus sp.,>64 µg/mL
same,MIC Coagulase Negative Staphylococcus (GC 4548),Staphylococcus sp.; broth dilution,>64 µg/mL
same,MIC Coagulase Negative Staphylococcus (GC 4549),Staphylococcus sp.,64 µg/mL
same,MIC Coagulase Negative Staphylococcus (GC 4549),Staphylococcus sp.; broth dilution,64 µg/mL
same,MIC Coagulase Negative Staphylococcus (GC 4551),Staphylococcus sp.,>64 µg/mL
same,MIC Coagulase Negative Staphylococcus (GC 4551),Staphylococcus sp.; broth dilution,>64 µg/mL
same,MIC Coagulase Negative Staphylococcus (GC 6257),Staphylococcus sp.,64 µg/mL
same,MIC Coagulase Negative Staphylococcus (GC 6257),Staphylococcus sp.; broth dilution,64 µg/mL
same,MIC Staphylococcus aureus (ATCC 29213),Staphylococcus sp.,>64 µg/mL
same,MIC Staphylococcus aureus (ATCC 29213),Staphylococcus sp.; broth dilution,>64 µg/mL
same,MIC Staphylococcus aureus (GC 1131),Staphylococcus sp.,>64 µg/mL
same,MIC Staphylococcus aureus (GC 1131),Staphylococcus sp.; broth dilution,>64 µg/mL
same,MIC Staphylococcus aureus (GC 3051),Staphylococcus sp.,>64 µg/mL
same,MIC Staphylococcus aureus (GC 3051),Staphylococcus sp.; broth dilution,>64 µg/mL
same,MIC Staphylococcus aureus (GC 3053),Staphylococcus sp.,>64 µg/mL
same,MIC Staphylococcus aureus (GC 3053),Staphylococcus sp.; broth dilution,>64 µg/mL
same,MIC Staphylococcus aureus (GC 4541),Staphylococcus sp.,>64 µg/mL
same,MIC Staphylococcus aureus (GC 4541),Staphylococcus sp.; broth dilution,>64 µg/mL
same,MIC Staphylococcus aureus (GC 4542),Staphylococcus sp.,>64 µg/mL
same,MIC Staphylococcus aureus (GC 4542),Staphylococcus sp.; broth dilution,>64 µg/mL
same,MIC Staphylococcus aureus (GC 4544),Staphylococcus sp.,>64 µg/mL
same,MIC Staphylococcus aureus (GC 4544),Staphylococcus sp.; broth dilution,>64 µg/mL
same,MIC Staphylococcus aureus (GC 4545),Staphylococcus sp.,>64 µg/mL
same,MIC Staphylococcus aureus (GC 4545),Staphylococcus sp.; broth dilution,>64 µg/mL
same,MIC Staphylococcus aureus-SMITH (GC 4543),Staphylococcus sp.,>64 µg/mL
same,MIC Staphylococcus aureus-SMITH (GC 4543),Staphylococcus sp.; broth dilution,>64 µg/mL
same,MIC Staphylococcus haemolyticus (GC 4546),Staphylococcus sp.,64 µg/mL
same,MIC Staphylococcus haemolyticus (GC 4546),Staphylococcus sp.; broth dilution,64 µg/mL
same,MIC Enterococcus avium (GC 4558),Enterococcus sp.,>64 µg/mL
same,MIC Enterococcus faecalis (ATCC 29212),Enterococcus sp.,>64 µg/mL
same,MIC Enterococcus faecalis (GC 4553),Enterococcus sp.,>64 µg/mL
same,MIC Enterococcus faecalis (GC 4554),Enterococcus sp.,>64 µg/mL
same,MIC Enterococcus faecalis (GC 6189),Enterococcus sp.,>64 µg/mL
same,MIC Enterococcus faecium (GC 2243),Enterococcus sp.,>64 µg/mL
same,MIC Enterococcus faecium (GC 4556),Enterococcus sp.,>64 µg/mL
same,MIC Enterococcus faecium (GC 4557),Enterococcus sp.,64 µg/mL
